Measured values reported in patent publication US9693556B2, “Herbicidal pyridazinone derivatives” (SYNGENTA LIMITED, priority 2011, dated 2017).

Key:
Assay type in all cases: in vivo
[1] = tested on: Ipomoea hederacea (IPOHE); test: Pre-emergence herbicidal glasshouse test on Ipomoea hederacea; conditions: pre-emergence; 1000 g/h; evaluated after 13 days
In short: (§1)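 Application rate 1000 g/h, formulated in acetone/water (50:50) with 0.5% Tween 20 and sprayed onto pots sown 1 day (pre-emergence) or 8 days (post-emergence) earlier. Evaluation at 13 days rated damage from 1 (0-19%) to 5 (80-100%).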

[2] = tested on: Alopecurus myosuroides (ALOMY); test: Pre-emergence herbicidal glasshouse test on Alopecurus myosuroides; conditions: pre-emergence; 1000 g/h; evaluated after 13 days
In short: as §1

[3] = tested on: Echinochloa crus-galli (ECHCG); test: Post-emergence herbicidal glasshouse test on Echinochloa crus-galli; conditions: post-emergence; 1000 g/h; evaluated after 13 days
In short: as §1

[4] = tested on: Solanum nigrum (SOLNI); test: Post-emergence herbicidal glasshouse test on Solanum nigrum; conditions: post-emergence; 1000 g/h; evaluated after 13 days
In short: as §1

[5] = tested on: Setaria faberi (SETFA); test: Post-emergence herbicidal glasshouse test on Setaria faberi; conditions: post-emergence; 1000 g/h; evaluated after 13 days
In short: as §1

[6] = tested on: Alopecurus myosuroides (ALOMY); test: Post-emergence herbicidal glasshouse test on Alopecurus myosuroides; conditions: post-emergence; 1000 g/h; evaluated after 13 days
In short: as §1

[7] = tested on: Setaria faberi (SETFA); test: Pre-emergence herbicidal glasshouse test on Setaria faberi; conditions: pre-emergence; 1000 g/h; evaluated after 13 days
In short: as §1

[8] = tested on: Amaranthus retoflexus (AMARE); test: Post-emergence herbicidal glasshouse test on Amaranthus retoflexus; conditions: post-emergence; 1000 g/h; evaluated after 13 days
In short: as §1

[9] = tested on: Solanum nigrum (SOLNI); test: Pre-emergence herbicidal glasshouse test on Solanum nigrum; conditions: pre-emergence; 1000 g/h; evaluated after 13 days
In short: as §1

[10] = tested on: Echinochloa crus-galli (ECHCG); test: Pre-emergence herbicidal glasshouse test on Echinochloa crus-galli; conditions: pre-emergence; 1000 g/h; evaluated after 13 days
In short: as §1

[11] = tested on: Ipomoea hederacea (IPOHE); test: Post-emergence herbicidal glasshouse test on Ipomoea hederacea; conditions: post-emergence; 1000 g/h; evaluated after 13 days
In short: as §1

[12] = tested on: Amaranthus retoflexus (AMARE); test: Pre-emergence herbicidal glasshouse test on Amaranthus retoflexus; conditions: pre-emergence; 1000 g/h; evaluated after 13 days
In short: as §1

Row | Structure (SMILES) | PRE Application IPOHE herbicidal damage (five point scale) [1] | PRE Application ALOMY herbicidal damage (five point scale) [2] | POST Application ECHCG herbicidal damage (five point scale) [3] | POST Application SOLNI herbicidal damage (five point scale) [4] | POST Application SETFA herbicidal damage (five point scale) [5] | POST Application ALOMY herbicidal damage (five point scale) [6] | PRE Application SETFA herbicidal damage (five point scale) [7] | POST Application AMARE herbicidal damage (five point scale) [8] | PRE Application SOLNI herbicidal damage (five point scale) [9] | PRE Application ECHCG herbicidal damage (five point scale) [10] | POST Application IPOHE herbicidal damage (five point scale) [11] | PRE Application AMARE herbicidal damage (five point scale) [12]
1 | COC(=O)Oc1c(-c2ccc(C(F)(F)F)cc2S(C)(=O)=O)cnn(C)c1=O [Compound 3.003, Methyl [2-methyl-5-[2-methylsulfonyl-4-(trifluoromethyl)phenyl]-3-oxo-pyridazin-4-yl]carbonate] | 5 (5=80-100% damage) | 5 (5=80-100% damage) | 5 (5=80-100% damage) | 5 (5=80-100% damage) | 5 (5=80-100% damage) | 5 (5=80-100% damage) | 5 (5=80-100% damage) | 5 (5=80-100% damage) | 5 (5=80-100% damage) | 5 (5=80-100% damage) | 5 (5=80-100% damage) | 5 (5=80-100% damage)
2 | Cn1ncc(-n2ccc(C(F)(F)F)c(-c3ccc(C(F)(F)F)cc3)c2=O)c(O)c1=O [Compound 7.035] | 3 (3=40-59% damage) | 5 (5=80-100% damage) | 5 (5=80-100% damage) | 5 (5=80-100% damage) | 5 (5=80-100% damage) | 5 (5=80-100% damage) | 5 (5=80-100% damage) | 5 (5=80-100% damage) | 5 (5=80-100% damage) | 5 (5=80-100% damage) | 4 (4=60-79% damage) | 5 (5=80-100% damage)
3 | Cn1ncc(-c2ccc(Cl)cc2Cl)c(O)c1=O [Compound 1.077] | 1 (1=0-19% damage) | 1 (1=0-19% damage) | 1 (1=0-19% damage) | 2 (2=20-39% damage) | 1 (1=0-19% damage) | 1 (1=0-19% damage) | 1 (1=0-19% damage) | 4 (4=60-79% damage) | 3 (3=40-59% damage) | 1 (1=0-19% damage) | 2 (2=20-39% damage) | 3 (3=40-59% damage)
4 | Cn1nc(N)c(-c2ccc(C(F)(F)F)cc2S(C)(=O)=O)c(O)c1=O [Compound 2.039] | 5 (5=80-100% damage) | 5 (5=80-100% damage) | 5 (5=80-100% damage) | 5 (5=80-100% damage) | 5 (5=80-100% damage) | 5 (5=80-100% damage) | 5 (5=80-100% damage) | 5 (5=80-100% damage) | 5 (5=80-100% damage) | 5 (5=80-100% damage) | 5 (5=80-100% damage) | 5 (5=80-100% damage)
5 | CCCCn1cc(C)cc(-c2cnn(C)c(=O)c2O)c1=O [Compound 6.003] | 1 (1=0-19% damage) | 1 (1=0-19% damage) | 4 (4=60-79% damage) | 4 (4=60-79% damage) | 2 (2=20-39% damage) | 2 (2=20-39% damage) | 1 (1=0-19% damage) | 4 (4=60-79% damage) | 1 (1=0-19% damage) | 1 (1=0-19% damage) | 2 (2=20-39% damage) | 1 (1=0-19% damage)
